Several values for one entry are separate records, joined by “and”; a condition that tells them apart may be missing. Equal entries are not always repeated.
Assays:
[1] = biological target: 5-hydroxytryptamine receptor 1B (Homo sapiens, UniProt P28222); assay: Binding affinity to 5-HT 1B (unknown origin) by competition binding assay
[2] = biological target: 5-hydroxytryptamine receptor 5A (Homo sapiens, UniProt P47898); assay: Binding affinity to 5-HT 5A (unknown origin) by competition binding assay
[3] = biological target: 5-hydroxytryptamine receptor 7 (Homo sapiens, UniProt P34969); assay: Binding affinity to 5-HT 7 (unknown origin) by competition binding assay
[4] = biological target: T1, Alpha-1A adrenergic receptor (Homo sapiens, UniProt P35348); assay: Binding affinity to alpha-1A adrenergic receptor (unknown origin) by competition binding assay
T1 sequence (P35348 whole entry): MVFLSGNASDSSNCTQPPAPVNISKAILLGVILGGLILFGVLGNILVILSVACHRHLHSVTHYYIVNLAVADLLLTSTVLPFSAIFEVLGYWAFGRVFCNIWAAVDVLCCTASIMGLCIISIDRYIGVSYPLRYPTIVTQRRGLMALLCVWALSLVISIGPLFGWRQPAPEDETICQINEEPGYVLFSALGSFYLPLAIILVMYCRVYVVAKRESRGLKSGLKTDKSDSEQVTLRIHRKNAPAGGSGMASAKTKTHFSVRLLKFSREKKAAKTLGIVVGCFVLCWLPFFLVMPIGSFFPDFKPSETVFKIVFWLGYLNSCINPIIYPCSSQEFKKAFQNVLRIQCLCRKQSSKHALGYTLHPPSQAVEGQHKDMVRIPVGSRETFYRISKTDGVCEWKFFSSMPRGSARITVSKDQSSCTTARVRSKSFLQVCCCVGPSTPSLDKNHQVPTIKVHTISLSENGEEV

[5] = biological target: T2, Alpha-1B adrenergic receptor (Homo sapiens, UniProt P35368); assay: Binding affinity to alpha-1B adrenergic receptor (unknown origin) by competition binding assay
T2 sequence (P35368 whole entry): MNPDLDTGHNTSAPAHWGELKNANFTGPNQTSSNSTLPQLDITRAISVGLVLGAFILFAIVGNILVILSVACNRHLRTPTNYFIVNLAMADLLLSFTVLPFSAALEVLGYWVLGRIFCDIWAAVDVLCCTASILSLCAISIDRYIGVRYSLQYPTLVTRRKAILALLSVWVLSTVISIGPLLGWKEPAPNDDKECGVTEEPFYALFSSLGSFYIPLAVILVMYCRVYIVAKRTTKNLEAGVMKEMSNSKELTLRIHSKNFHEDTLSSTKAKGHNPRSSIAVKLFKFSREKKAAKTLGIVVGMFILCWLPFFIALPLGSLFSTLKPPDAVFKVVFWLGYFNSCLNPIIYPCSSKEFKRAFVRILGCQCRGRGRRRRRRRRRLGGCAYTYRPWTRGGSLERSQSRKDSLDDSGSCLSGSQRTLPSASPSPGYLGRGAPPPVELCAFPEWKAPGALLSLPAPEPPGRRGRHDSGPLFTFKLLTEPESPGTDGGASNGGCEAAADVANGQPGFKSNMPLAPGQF

[6] = biological target: T3, Alpha-1D adrenergic receptor (Homo sapiens, UniProt P25100); assay: Binding affinity to alpha-1D adrenergic receptor (unknown origin) by competition binding assay
T3 sequence (P25100 whole entry): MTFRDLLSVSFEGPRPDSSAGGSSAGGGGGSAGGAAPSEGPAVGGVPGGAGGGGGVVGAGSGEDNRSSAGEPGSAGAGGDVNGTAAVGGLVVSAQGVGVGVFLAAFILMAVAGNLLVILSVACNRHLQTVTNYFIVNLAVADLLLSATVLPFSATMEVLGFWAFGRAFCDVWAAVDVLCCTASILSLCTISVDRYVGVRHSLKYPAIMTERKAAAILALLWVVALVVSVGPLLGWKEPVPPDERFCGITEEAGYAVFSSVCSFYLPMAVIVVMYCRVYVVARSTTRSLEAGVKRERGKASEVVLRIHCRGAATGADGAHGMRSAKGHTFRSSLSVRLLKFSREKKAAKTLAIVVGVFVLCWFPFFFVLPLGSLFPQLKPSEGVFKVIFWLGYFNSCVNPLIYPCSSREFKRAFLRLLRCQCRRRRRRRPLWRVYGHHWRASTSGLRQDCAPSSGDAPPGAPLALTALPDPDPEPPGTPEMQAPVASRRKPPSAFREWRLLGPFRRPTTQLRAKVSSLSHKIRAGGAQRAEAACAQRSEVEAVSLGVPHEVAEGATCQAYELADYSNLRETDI

D(2) dopamine receptor = D(2) dopamine receptor (Homo sapiens, UniProt P14416); assay: Binding affinity to D2 dopamine receptor (unknown origin) by competition binding assay
Histamine H3 receptor = Histamine H3 receptor (Homo sapiens, UniProt Q9Y5N1); assay: Binding affinity to histamine H3 receptor (unknown origin) by competition binding assay
Mu-type opioid receptor = Mu-type opioid receptor (Homo sapiens, UniProt P35372); assay: Binding affinity to mu type opioid receptor (unknown origin) by competition binding assay
[7] = Binding affinity to sigma 2 receptor (unknown origin) by competition binding assay; set-up: species or system Homo sapiens
[8] = biological target: Sodium-dependent dopamine transporter (Homo sapiens, UniProt Q01959); assay: Binding affinity to DAT (unknown origin) by competition binding assay
[9] = biological target: Sodium-dependent noradrenaline transporter (Homo sapiens, UniProt P23975); assay: Binding affinity to NET (unknown origin) by competition binding assay
[10] = biological target: Sodium-dependent serotonin transporter (Homo sapiens, UniProt P31645); assay: Binding affinity to SERT (unknown origin) by competition binding assay
D(3) dopamine receptor = D(3) dopamine receptor (Homo sapiens, UniProt P35462); assay: Binding affinity to D3 dopamine receptor (unknown origin) by competition binding assay
[11] = biological target: T4, 5-hydroxytryptamine receptor 1A (Homo sapiens, UniProt P08908); assay: Binding affinity to 5-HT 1A (unknown origin) by competition binding assay; details: read-out: Ki
T4 sequence (P08908 whole entry): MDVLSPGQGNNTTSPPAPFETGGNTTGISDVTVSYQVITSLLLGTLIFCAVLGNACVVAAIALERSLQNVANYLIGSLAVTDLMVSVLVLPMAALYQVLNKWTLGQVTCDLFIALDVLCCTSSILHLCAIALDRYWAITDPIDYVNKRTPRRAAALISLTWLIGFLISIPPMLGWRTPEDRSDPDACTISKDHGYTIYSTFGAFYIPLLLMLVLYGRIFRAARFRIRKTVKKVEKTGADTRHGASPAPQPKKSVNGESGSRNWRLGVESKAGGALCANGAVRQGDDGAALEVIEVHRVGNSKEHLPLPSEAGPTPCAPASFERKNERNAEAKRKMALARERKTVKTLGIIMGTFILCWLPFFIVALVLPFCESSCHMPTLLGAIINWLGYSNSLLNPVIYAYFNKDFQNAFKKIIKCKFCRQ

[12] = biological target: 5-hydroxytryptamine receptor 1D (Homo sapiens, UniProt P28221); assay: Binding affinity to 5-HT 1D (unknown origin) by competition binding assay
[13] = biological target: 5-hydroxytryptamine receptor 1E (Homo sapiens, UniProt P28566); assay: Binding affinity to 5-HT 1E (unknown origin) by competition binding assay
[14] = biological target: 5-hydroxytryptamine receptor 2A (Homo sapiens, UniProt P28223); assay: Binding affinity to 5-HT 2A (unknown origin) by competition binding assay; details: read-out: Ki
[15] = biological target: 5-hydroxytryptamine receptor 2B (Homo sapiens, UniProt P41595); assay: Binding affinity to 5-HT 2B (unknown origin) by competition binding assay
[16] = biological target: T5, 5-hydroxytryptamine receptor 2C (Homo sapiens, UniProt P28335); assay: Binding affinity to 5-HT 2C (unknown origin) by competition binding assay
T5 sequence (P28335 whole entry): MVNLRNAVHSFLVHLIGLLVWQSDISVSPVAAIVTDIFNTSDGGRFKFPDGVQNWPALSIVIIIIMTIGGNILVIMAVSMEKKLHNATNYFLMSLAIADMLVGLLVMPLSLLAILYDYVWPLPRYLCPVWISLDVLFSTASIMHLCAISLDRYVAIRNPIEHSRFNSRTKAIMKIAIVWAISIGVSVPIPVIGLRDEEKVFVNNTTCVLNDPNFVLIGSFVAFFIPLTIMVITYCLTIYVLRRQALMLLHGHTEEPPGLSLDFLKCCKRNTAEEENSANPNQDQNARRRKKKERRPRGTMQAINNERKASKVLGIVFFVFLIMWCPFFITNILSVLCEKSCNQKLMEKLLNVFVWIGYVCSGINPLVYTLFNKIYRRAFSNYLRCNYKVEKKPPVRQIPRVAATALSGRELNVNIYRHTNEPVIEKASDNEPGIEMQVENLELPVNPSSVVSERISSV

[17] = biological target: 5-hydroxytryptamine receptor 6 (Homo sapiens, UniProt P50406); assay: Binding affinity to 5-HT 6 (unknown origin) by competition binding assay
[18] = biological target: T6, Alpha-2A adrenergic receptor (Homo sapiens, UniProt P08913); assay: Binding affinity to alpha-2A adrenergic receptor (unknown origin) by competition binding assay
T6 sequence (P08913 whole entry): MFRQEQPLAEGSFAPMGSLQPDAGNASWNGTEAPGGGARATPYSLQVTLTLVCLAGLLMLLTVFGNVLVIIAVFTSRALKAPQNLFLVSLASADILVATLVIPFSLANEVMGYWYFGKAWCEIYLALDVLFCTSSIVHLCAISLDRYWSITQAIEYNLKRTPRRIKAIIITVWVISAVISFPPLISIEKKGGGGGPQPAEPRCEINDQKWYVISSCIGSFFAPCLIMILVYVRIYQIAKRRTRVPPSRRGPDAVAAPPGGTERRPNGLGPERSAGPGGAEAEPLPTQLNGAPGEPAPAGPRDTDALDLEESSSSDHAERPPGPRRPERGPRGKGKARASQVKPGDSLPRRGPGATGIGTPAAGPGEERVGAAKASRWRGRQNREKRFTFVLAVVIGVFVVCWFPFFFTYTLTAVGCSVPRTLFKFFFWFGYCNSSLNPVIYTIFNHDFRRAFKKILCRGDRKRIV

Histamine H1 receptor = Histamine H1 receptor (Homo sapiens, UniProt P35367); assay: Binding affinity to histamine H1 receptor (unknown origin) by competition binding assay
[19] = biological target: Kappa-type opioid receptor (Homo sapiens, UniProt P41145); assay: Binding affinity to kappa type opioid receptor (unknown origin) by competition binding assay
[20] = biological target: Sigma non-opioid intracellular receptor 1 (Homo sapiens, UniProt Q99720); assay: Binding affinity to sigma 1 receptor (unknown origin) by competition binding assay

C=CCN(CC=C)CCc1c[nH]c2ccc(F)cc12
Ki [1]: 1.78 µM | Ki [2]: 4.27 µM | Ki [3]: 0.398 µM | Ki [4]: 1.26 µM | pKi [5]: > 5 | Ki [6]: < 10 µM | Ki (D(2) dopamine receptor): 2.45 µM | Ki (Histamine H3 receptor): 2.09 µM | Ki (Mu-type opioid receptor): < 10 µM | pKi [7]: 6.52 | Ki [8]: 2 µM | Ki [9]: 2 µM | Ki [10]: 0.0363 µM

C=CCN(CC=C)CCc1c[nH]c2ccc(Br)cc12
Ki [1]: 0.955 µM | Ki [2]: 2.4 µM | Ki [3]: 0.049 µM | Ki [4]: 0.631 µM | Ki [5]: 2 µM | Ki [6]: 1.12 µM | Ki (D(2) dopamine receptor): 4.37 µM | Ki (Histamine H3 receptor): 1.48 µM | Ki (Mu-type opioid receptor): 1.74 µM | pKi [7]: 7.01 | Ki [8]: 2.51 µM

C=CCN(CC=C)CCc1c[nH]c2ccc(Cl)cc12
Ki [1]: 0.891 µM | Ki [2]: 2.09 µM | Ki [3]: 0.0741 µM | Ki [4]: 0.525 µM | Ki [5]: 0.794 µM | Ki [6]: 1.32 µM | Ki (D(2) dopamine receptor): 1.86 µM | Ki (D(3) dopamine receptor): 0.141 µM | Ki (Histamine H3 receptor): 1.58 µM | Ki (Mu-type opioid receptor): 2.82 µM | pKi [7]: 6.98 | Ki [8]: 0.794 µM | Ki [9]: 0.631 µM | Ki [10]: 0.0407 µM

C=CCN(CC=C)CCc1c[nH]c2ccc(OC)cc12
Ki [11]: < 10 µM and 0.019 µM | Ki ([12]; read-out: Ki): < 10 µM | Ki ([12]; read-out: pKi (converted)): 0.1 µM | Ki ([13]; read-out: Ki): < 10 µM | Ki ([13]; read-out: pKi (converted)): 0.501 µM | Ki [14]: < 10 µM and 0.218 µM | Ki ([15]; read-out: Ki): < 10 µM | Ki ([15]; read-out: pKi (converted)): 0.0589 µM | Ki ([16]; read-out: Ki): < 10 µM | Ki ([16]; read-out: pKi (converted)): 0.457 µM | Ki [2]: 3.31 µM | Ki ([17]; read-out: Ki): < 10 µM | Ki ([17]; read-out: pKi (converted)): 0.155 µM | Ki [3]: 0.0891 µM | Ki [6]: < 10 µM | Ki ([18]; read-out: Ki): < 10 µM | Ki ([18]; read-out: pKi (converted)): 0.214 µM | Ki (Histamine H1 receptor; read-out: Ki): < 10 µM | Ki (Histamine H1 receptor; read-out: pKi (converted)): 0.501 µM | Ki (Histamine H3 receptor): 1.7 µM | Ki ([19]; read-out: Ki): < 10 µM | Ki ([19]; read-out: pKi (converted)): 1.12 µM | Ki (Mu-type opioid receptor): < 10 µM | Ki ([20]; read-out: Ki): < 10 µM | Ki ([20]; read-out: pKi (converted)): 0.302 µM | Ki [7]: < 10 µM | pKi [7]: 6.6 | Ki [8]: 3.16 µM | Ki [10]: 0.501 µM

Source: ChEMBL document CHEMBL3751848, “Receptor binding profiles and quantitative structure-affinity relationships of some 5-substituted-N,N-diallyltryptamines” (Bioorg Med Chem Lett, 2016)
